{"source": "paper PMC9697614", "about": "“Rufinamide, a Triazole-Derived Antiepileptic Drug, Stimulates Ca^2+-Activated K^+ Currents While Inhibiting Voltage-Gated Na^+ Currents” (International Journal of Molecular Sciences, 2022)", "molecular_target": "T1, large-conductance Ca2+-activated K+ channel (BKCa, KCa1.1, KCNMA1, Slo1) (Rattus norvegicus, UniProt Q62976)", "T1 construct": "native channel in pituitary GH3 cells", "T1 sequence (Q62976 whole entry)": "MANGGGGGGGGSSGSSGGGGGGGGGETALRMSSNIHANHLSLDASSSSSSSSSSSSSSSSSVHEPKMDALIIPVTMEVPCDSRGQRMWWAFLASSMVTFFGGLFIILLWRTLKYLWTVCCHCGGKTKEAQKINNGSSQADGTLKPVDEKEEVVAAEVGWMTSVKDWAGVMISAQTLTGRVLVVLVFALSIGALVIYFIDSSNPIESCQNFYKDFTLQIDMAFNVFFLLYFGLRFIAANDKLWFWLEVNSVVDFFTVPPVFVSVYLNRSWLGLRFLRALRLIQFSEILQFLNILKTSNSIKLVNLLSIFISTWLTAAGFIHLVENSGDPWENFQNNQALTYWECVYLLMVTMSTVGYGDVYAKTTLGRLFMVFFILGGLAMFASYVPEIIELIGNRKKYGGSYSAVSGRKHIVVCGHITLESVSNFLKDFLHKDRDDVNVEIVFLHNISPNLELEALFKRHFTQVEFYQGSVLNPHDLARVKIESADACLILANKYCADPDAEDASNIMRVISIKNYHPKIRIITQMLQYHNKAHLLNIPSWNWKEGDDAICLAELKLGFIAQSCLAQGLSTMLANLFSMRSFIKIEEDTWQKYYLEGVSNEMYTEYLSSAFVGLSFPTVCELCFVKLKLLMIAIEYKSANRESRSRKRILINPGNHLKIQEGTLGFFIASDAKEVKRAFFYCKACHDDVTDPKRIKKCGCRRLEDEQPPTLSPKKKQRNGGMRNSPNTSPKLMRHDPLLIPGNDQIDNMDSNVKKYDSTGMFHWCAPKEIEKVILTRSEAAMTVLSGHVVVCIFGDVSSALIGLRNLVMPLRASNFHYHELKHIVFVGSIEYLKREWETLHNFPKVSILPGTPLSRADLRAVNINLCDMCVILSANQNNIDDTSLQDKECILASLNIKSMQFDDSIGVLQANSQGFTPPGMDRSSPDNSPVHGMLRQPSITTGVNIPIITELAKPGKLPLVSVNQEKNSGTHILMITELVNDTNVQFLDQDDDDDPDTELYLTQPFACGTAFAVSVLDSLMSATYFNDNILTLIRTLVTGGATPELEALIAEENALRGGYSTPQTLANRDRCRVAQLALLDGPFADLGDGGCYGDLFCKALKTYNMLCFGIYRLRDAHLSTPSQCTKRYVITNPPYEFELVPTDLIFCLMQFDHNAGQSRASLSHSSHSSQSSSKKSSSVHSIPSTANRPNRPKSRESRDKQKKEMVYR", "test": "patch clamp: inside-out single-channel recordings (RFM on cytosolic face) and whole-cell IK(Ca) concentration-response", "type": "cell-based"}
{"smiles": "NC(=O)c1cn(Cc2c(F)cccc2F)nn1", "note": "[RFM, 1-((2,6-difluorophenyl)methyl)-1H-1,2,3-triazole-4carboxamide]", "values": [{"measurement": "EC50", "result": 3.9, "unit": "µM"}]}
